Experimental data as given in ChEMBL document CHEMBL1201862, “PubChem BioAssay data set” (2004).
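Tested at 5 concentrations; 48 h exposure; 96-well plates; endpoints linearly interpolated, else capped at highest concentration. The concentration for 50% growth inhibition is given as GI50.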 Activity calls are given as the source filed them. Cut-off read from the data, not from the text of the source: active = GI50 up to about 1.1 µM and inactive = higher.

Columns and labels:
Assay in all cases: NCI-60 cell line screen, 48 h
HCC 2998 = system: HCC 2998
U-251 = system: U-251
NCI-H226 = system: NCI-H226
EKVX = system: EKVX
SF-295 = system: SF-295
SN12C = system: SN12C
NCI-H23 = system: NCI-H23
SF-268 = system: SF-268
HCT-15 = system: HCT-15
HCT-116 = system: HCT-116
Hs-578T = system: Hs-578T
LOX IMVI = system: LOX IMVI
A498 = system: A498
NCI-H522 = system: NCI-H522
MOLT-4 = system: MOLT-4
CAKI-1 = system: CAKI-1
MDA-MB-231 = system: MDA-MB-231
HL-60 = system: HL-60
Malme-3M = system: Malme-3M
OVCAR-5 = system: OVCAR-5

Compound	GI50 (HCC 2998)	GI50 (U-251)	GI50 (NCI-H226)	GI50 (EKVX)	GI50 (SF-295)	GI50 (SN12C)	GI50 (NCI-H23)	GI50 (SF-268)	GI50 (HCT-15) [µM]	GI50 (HCT-116)	GI50 (Hs-578T)	GI50 (LOX IMVI)	GI50 (A498)	GI50 (NCI-H522)	GI50 (MOLT-4)	GI50 (CAKI-1)	GI50 (MDA-MB-231)	GI50 (HL-60)	GI50 (Malme-3M)	GI50 (OVCAR-5)
N#CC1=C(N)N(c2ccccc2)C(c2ccccc2)C1(C#N)C#N (stereo not given)	16.4 µM (inactive)	17.1 µM (inactive)	17.7 µM (inactive)	19.7 µM (inactive)	18.4 µM (inactive)	18.8 µM (inactive)	20.8 µM (inactive)	22.6 µM (inactive)	20.6	14.5 µM (inactive)	30 µM (inactive)	16.6 µM (inactive)	17.4 µM (inactive)	16.3 µM (inactive)	12.3 µM (inactive)	20.9 µM (inactive)	14.3 µM (inactive)	17 µM (inactive)	17.6 µM (inactive)	16.1 µM (inactive)
Cc1ccc(C(=O)OC[C@H]2CC[C@@H](n3cc(N(C)C4CCCCC4)c(=O)[nH]c3=O)O2)cc1	> 100 µM (inactive)	20.2 µM (inactive)	24.4 µM (inactive)	38.9 µM (inactive)	15.7 µM (inactive)	20.7 µM (inactive)	43.9 µM (inactive)	28 µM (inactive)	24.5	16.7 µM (inactive)	35.8 µM (inactive)	19.1 µM (inactive)	19.5 µM (inactive)	24.3 µM (inactive)	30 µM (inactive)	31.4 µM (inactive)	14.9 µM (inactive)	27.9 µM (inactive)	24.7 µM (inactive)	26.6 µM (inactive)
C=C(Cl)C(Cl)(CBr)CCCC(C)(C)Cl (stereo not given)	15.9 µM (inactive)	2.11 µM (inactive)	> 72.9 µM (inactive)	18.5 µM (inactive)	7.55 µM (inactive)	60.8 µM (inactive)	45 µM (inactive)	12.7 µM (inactive)	26.3	14.1 µM (inactive)	2.98 µM (inactive)	11.9 µM (inactive)	19.8 µM (inactive)	9.25 µM (inactive)	> 55.6 µM (inactive)	1.99 µM (inactive)	> 38.6 µM (inactive)	1.53 µM (inactive)	18 µM (inactive)	18.4 µM (inactive)
